Measured values from article PMC11438102, “Modulation of cannabinoid receptor 2 alters neuroinflammation and reduces formation of alpha-synuclein aggregates in a rat model of nigral synucleinopathy” (Journal of Neuroinflammation, 2024).

Tests used:
[1] = test system: pSer129 and total human Asyn in striatum; test: Western immunoblot of pSer129 and total human Asyn in striatal lysates; assay type: in vivo; settings: rat low cohort, striatum ipsilateral to AAV, 6 mg/kg i.p. daily 7 weeks, vs vehicle
Procedure: Sprague Dawley male rats (16–18 weeks of age, 400–525 g) were purchased from Charles River Laboratories and acclimated to Emory University animal facilities. Rats were pair housed in standard plexiglass cages under normal 12-hr light cycles and handled in accordance with protocols approved by the IACUC of Emory University in Atlanta, GA. Rats were administered unilateral injections of AAV2/5-human wild-type (WT) Asyn at titers of 2.9–4.3 × 10^11 vector genomes (vg)/mL (termed “low cohort”), which was previously shown to not induce nigral neurotoxicity. Thereby, generating a model with overexpression of human WT Asyn and Asyn-mediated neuroinflammation. […]
Striatal tissue from successfully targeted low cohort rats was homogenized in ice-cold TriZOL lysed using the TissueLyser system. […] Total protein concentrations were measured using Pierce BCA Protein Assay Kit and equal amount of protein (10–20 µg) mixed with Laemmli sample buffer were loaded in 4–20% TGX precast gels (Biorad) for gel electrophoresis. […] Revert staining was captured and measured on the Licor Odyssey at 700 nm for 30 s.
Non-specific protein binding was blocked with 5% milk and 0.1% Tween-20 in TBS for 1 h at room temperature, and membranes incubated with primary antibodies overnight at 4°C. […] The density of the band was quantified using StudioLite software. […]

[2] = test system: tyrosine hydroxylase, phosphorylated tyrosine hydroxylase, dopamine transporter, IBA1, GFAP in striatum; test: Western immunoblot of dopaminergic and glial markers in striatal lysates; assay type: in vivo; settings: rat low cohort, 6 mg/kg i.p. daily 7 weeks, vs vehicle
Procedure: Striatal tissue from successfully targeted low cohort rats was homogenized in ice-cold TriZOL lysed using the TissueLyser system. Homogenates were incubated with 20% chloroform and centrifuged at 13,523g for 15 min at 4°C. Protein pellets were washed in methanol twice and resuspended in 1% SDS and heated to 50°C. Total protein concentrations were measured using Pierce BCA Protein Assay Kit and equal amount of protein (10–20 µg) mixed with Laemmli sample buffer were loaded in 4–20% TGX precast gels (Biorad) for gel electrophoresis. Protein was transferred to a PVDF membrane (Biorad) using a Trans Blot Turbo Transfer System, the immunoblots were immediately fixed with 0.4% paraformaldehyde (PFA) for 30 min and stained for total protein using Revert 700 (Licor) for reliable normalization. Revert staining was captured and measured on the Licor Odyssey at 700 nm for 30 s.
Non-specific protein binding was blocked with 5% milk and 0.1% Tween-20 in TBS for 1 h at room temperature, and membranes incubated with primary antibodies overnight at 4°C. The blots were washed with 0.1%TBS-Tween-20, incubated with appropriate horseradish peroxidase-conjugated secondary antibodies (1:2000) at room temperature for 1 h and developed with SuperSignal West Femto Enhancer or Pico Peroxide solutions under a chemiluminescent detection imaging system (Licor Odyssey). The density of the band was quantified using StudioLite software. Relative expression levels were normalized to its own total protein and to vehicle average expression level.

RAW264.7 macrophages = test: Phagocytosis assay with pHrodo green E. coli bioparticles; assay type: cell-based; settings: vs vehicle; for integrated density of GFP (phagocytosis of E. coli bioparticles): 100ng/mL LPS; for phagocytosis of E. coli bioparticles: 1 μg/mL LPS
Procedure: The RAW264.7 macrophage cells (ATCC Cat# TIB-71, RRID: CVCL_0493) were grown in sterile media which consisted of DMEM high glucose, 10% FBS, 2mM L-glutamine, 1x Pen-strep and 1x sodium pyruvate in a humidified 5% CO2 incubator at 37°C. RAW264.7 were maintained in […] tissue culture flasks and plated at a density of 1 × 10^4 cells in triplicate in 96-well plates for assays. Cells were stimulated with either lipopolysaccharide (LPS O111:B4; Sigma Cat#L2630) at 100ng/mL or 1000ng/mL (750EU/mL or 7500 EU/mL, respectively). One hour prior to this stimulation the cells were pre-treated with the CB2 inverse agonist SMM-189 at 3μM or 7 μm or its vehicle. Specifically for cell culture experiments, SMM-189 was formulated with 40% ethanol (v/v), 20% tween-20 (v/v) and 40% saline (v/v). A phagocytosis assay was conducted 24 h after LPS.
The phagocytosis assay was performed using pHrodo green E. coli bioparticles (Invitrogen Cat# P35366) according to the manufacturer’s instructions. Five images per well were then collected every 30 min for 24 h on an EVOS M7000 microscope (Invitrogen, ThermoFisher Scientific). The cells were maintained for this duration using an on-stage incubator kept at 37°C and 5% CO2. Analysis of the collected images was performed using EVOS Celleste software (version 5.0), which counted the cells and then measured the integrated optical density of fluorescence within each well over the 24-hour time course. Analysis was conducted on the average integrated optical density across triplicate wells. Results were consistent across duplicate experimental replicates.

## O=C(c1ccccc1)c1cc(O)c(-c2cc(Cl)cc(Cl)c2)c(O)c1 [SMM-189]
[1]
  pS129 levels in striatum, western: reduced
  total human Asyn levels in striatum, western: no differences
[2]
  myeloid marker IBA1 in striatum, western: no differences
  phosphorylated tyrosine hydroxylase in striatal lysates: no significant changes
  tyrosine hydroxylase in striatal lysates: no significant changes
[2]; p = 0.0746
  astrocyte marker GFAP expression levels in striatum, western: trend to decrease
[2]; trend to increase p = 0.051
  dopamine transporter in striatal lysates: no significant changes
RAW264.7 macrophages; pre-treatment 3 μm, p = 0.0024
  integrated density of GFP (phagocytosis of E. coli bioparticles): significantly increased
RAW264.7 macrophages; pre-treatment 7 μm, p < 0.0001
  integrated density of GFP (phagocytosis of E. coli bioparticles): significantly increased
RAW264.7 macrophages; 3 μm
  phagocytosis of E. coli bioparticles: intensified
RAW264.7 macrophages; 7 μm
  phagocytosis of E. coli bioparticles: intensified
